The values below come from US8883827B2, “Azole derivatives as WTN pathway inhibitors” (Oslo University Hospital HF, priority 2009, dated 2014).

Where only a bound is given, the exact number is not on record here.

What all share (format): cell-based
For experiment [1], the system named is canonical Wnt signaling. The experiment is described as follows: IC50 in STF/REN HEK293 cells, 50% Wnt3a-CM. The following applies: Homo sapiens; STF/REN HEK293, 50% Wnt3a-CM, 24 h. As for the experimental part:
IC50 values were calculated using STF/REN HEK293 cells prepared essentially according to Example 22. Briefly, HEK293 cells (80,000 cells per well) were seeded in 48-well plates coated with poly-L lysine. 24 hours after seeding, the cells were incubated for an additional 24 hours with various compound concentrations in 50% Wnt3a-CM. After compound exposure, the cells were lysed and the firefly luciferase and Renilla activities were measured on a 20/20n Luminometer (Turner BioSystems) as described in the Dual-Glo™ Luciferase Assay System Technical Manual (Promega).
XLfit (idbs) was used to determine the IC50 and GI50 values in inhibition experiments. The data were fit to the following formulae:
IC50: Langmuir Binding Isotherm: fit=((A+(B*x))+(((C−B)*(1−exp((−1*D)*x)))/D)) res=(y−fit)

Experiment [2] concerns canonical Wnt signaling. The experiment in a line: ST-Luc (SuperTOPFlash) Luciferase assay in HEK293 cells, 30% Wnt3a-CM. The following applies: Homo sapiens, HEK293; 10 μM compound, 30% Wnt3a-CM, 24 h; relative to DMSO control. As to the method:
Inhibition of Wnt signaling by compound No. 1 was quantified in vitro using a Luciferase assay in HEK293 cells transiently transfected with SuperTOPFlash plasmid (ST-Luc) (Veeman M T et al., Curr. Biol. 13: 680-685, 2003) at concentrations from 0.1-10 μM. HEK293 cells were purchased from ATCC (American Type Culture Collection) and maintained according to suppliers recommendations.
Transfection was performed using 80000 HEK293 cells seeded in 48-well plates coated with poly-L lysine. After 24 hours, 0.25 μg total plasmid DNA (0.23 μg SuperTOPFlash+0.02 μg pRL-TK (Renilla)—Promega) and 0.75 μl FuGENE6 (Roche) was combined in a total volume in 25 μl Opti-MEM® (Invitrogen) as described by the manufacturer (Roche). The transfection mixture was added to the plated cells and media were changed after 24 hours.
The Luciferase assay was performed by incubating transfected cells for 24 hours with various concentrations of compound No. 1 in 30% Wnt3a-CM (Wnt3a containing conditioned medium from L Wnt3a cells was harvested as described by ATCC). All treated reporter cells were finally lysed and the firefly luciferase and Renilla activities were measured on a 20/20n Luminometer (Turner BioSystems) as described in the Dual-Glo™ Luciferase Assay System Technical Manual (Promega).
HEK293 cells were transfected, grown and assayed as described in Example 22. 24 hours after seeding, the cells were incubated for an additional 24 hours with 10 μM concentrations of compounds in 30% Wnt3a-CM.
The percent activities shown in Table 3 are calculated relative to DMSO as a control. Some values shown are averages of multiple measurements. Compound XAV939 (Novartis; Huang et al., Nature (2009), 461, pp. 614-20) which is used as a positive control, has an activity of 7%.

Experiment [3] deals with SW480 colon carcinoma cells. The experiment is described as follows: MTS cell proliferation assay, Table 5. The following applies: Homo sapiens; SW480, 10 μM, 72 h; relative to DMSO control; read-out: Cell proliferation (%) for test compounds. As to the method:
For the experiment giving the results shown in Table 5, cells (3000 per well) were seeded on 96 well plates (eight replicates per treatment). After 24 hours, and daily thereafter, cell culture medium (including 10% FBS) was mixed with 10 μM compounds or with 0.1% DMSO vehicle and then added to the wells. Sixteen wells of seeded control cells, defining incubation time zero (t0=24 hour after cell seeding), were incubated with 20 μl substrate in 100 μl phenol free D-MEM (Invitrogen) for 2 hours, as described in the CellTiter 96® AQueous Non-Radioactive Cell Proliferation Assay protocol (Promega). The A490 was recorded. The treatment samples were likewise measured after 72 hours.
The quantity of reduced MTS product (as measured by the absorbance at 490 nm) is directly proportional to the number of living cells in the culture and thus allows a direct comparison of cell proliferation in each case. DMSO was used as a control. The following formula was used to determine single well relative A490 sample values: ((Sample A490−Average A490t0)*100)/(Average A490t720.1% DMSO control−Average A490t0)
The proliferation of SW480 cells (in percent) is the A492 value relative to that of the DMSO control.

`NCCCOCCCOc1cccc(-c2noc(CSc3nnc(-c4ccncc4)n3-c3ccccc3Cl)n2)c1` [compound 67] came in with an IC50 with canonical Wnt signaling [1] of under 100 nM. In the experiment on canonical Wnt signaling [2], this compound gave an activity at 10 µM of 12.7%.

On to `Cc1cc2nc(CSc3nnc(-c4ccncc4)n3-c3ccccc3Cl)cc(=O)n2cc1C` [compound 103], for which the figures for the activity at 10 µM (in the experiment on canonical Wnt signaling [2]; in experiment [3]) were 20% and 67%, respectively.

Consider `Cc1ccc(-n2c(SC(C)c3nc(-c4ccncc4)no3)nnc2-c2ccncc2)cc1C` (centres unmarked) [Compound 79], for which the values for the activity at 10 µM (in the experiment on canonical Wnt signaling [2]; in experiment [3]) were 16% and 70%, respectively.

Turning to `Cc1ccc(-c2nnc(CSc3nnc(-c4ccc(F)cc4F)n3-c3ccccc3Cl)o2)cc1` [compound 110, 3-((5-p-tolyl-1,3,4-oxadiazol-2-yl)methylthio)-4-(2-chlorophenyl)-5-(2,4-difluorophenyl)-4H-1,2,4-triazole], the half-maximal inhibitory concentration (IC50) in the experiment on canonical Wnt signaling [1] turned out to be 872 nM. The figures for the activity at 10 µM (in the experiment with canonical Wnt signaling [2]; in experiment [3]) were 2% and 50%, respectively.

Compound `Clc1cc(Cl)cc(-c2nnc(CSc3nnc(-c4ccncc4)n3-c3ccccc3Cl)o2)c1` [compound 117, 4-(5-((5-(3,5-dichlorophenyl)-1,3,4-oxadiazol-2-yl)methylthio)-4-(2-chlorophenyl)-4H-1,2,4-triazol-3-yl)pyridine] yielded an IC50 in the experiment with canonical Wnt signaling [1] of 834 nM. For the same compound, the activity at 10 µM amounted to 9% in the experiment with canonical Wnt signaling [2] and 85% in experiment [3].

Turning to `CCOc1ccc(-n2c(SCc3nc(-c4cccc(Cl)c4)no3)nnc2-c2ccncc2)cc1` [Compound 25], in the experiment with canonical Wnt signaling [1], the half-inhibitory concentration (IC50) was found to be 10000 nM. The compound further yielded an activity at 10 µM in the experiment with canonical Wnt signaling [2] of 59%.

In the experiment on canonical Wnt signaling [1], `Cc1ccc(-c2nnc(CSc3nnc(-c4ccnc(O)c4)n3-c3ccccc3Cl)o2)cc1` [compound 116, 4-(5-((5-p-tolyl-1,3,4-oxadiazol-2-yl)methylthio)-4-(2-chlorophenyl)-4H-1,2,4-triazol-3-yl)pyridin-2-ol] yielded an IC50 of 262 nM. The activity at 10 µM in the experiment on canonical Wnt signaling [2] amounted to 7%; in experiment [3] it was 70%.

As for `Cc1ccc(-c2nnc([C@@H](C)Sc3nnc(-c4ccncc4)n3-c3ccccc3Cl)o2)cc1` [99b], the half-inhibitory concentration (IC50) in the experiment with canonical Wnt signaling [1] came out at 163 nM. Besides, the results for the activity at 10 µM (in the experiment with canonical Wnt signaling [2]; in experiment [3]) were 12% and 72%, respectively.

Turning to `Cc1ccc(-c2noc(CS(=O)(=O)c3nnc(-c4ccncc4)n3-c3ccccc3Cl)n2)cc1` [compound 66], half-maximal inhibition with canonical Wnt signaling [1] (IC50) was put at 1750 nM. The compound further gave an activity at 10 µM with canonical Wnt signaling [2] of 25.6%.

`Cc1ccc(-c2nnc(CSc3nnc(-c4ccncc4)n3-c3ccccc3Cl)o2)s1` [compound 74] registered a concentration for half-maximal inhibition (IC50) with canonical Wnt signaling [1] of 371 nM. The compound also came in with an activity at 10 µM in the experiment with canonical Wnt signaling [2] of 13%.

In the experiment on canonical Wnt signaling [1], `COc1ccc(-n2c(SCc3nc(-c4cccs4)no3)nnc2-c2ccncc2)cc1` [Compound 13] registered an IC50 of 7100 nM. In the experiment with canonical Wnt signaling [2], this compound yielded an activity at 10 µM of 34.5%.

The compound `Fc1ccc(-n2c(SCc3nc(-c4ccc(Cl)cc4)no3)nnc2-c2ccncc2)cc1` [Compound 12] displayed an IC50 in the experiment with canonical Wnt signaling [1] of 10000 nM. In addition, the activity at 10 µM in the experiment with canonical Wnt signaling [2] was 38.8%.

As for `CCOc1ccc(-c2nnc(SCc3nnc(-c4ccc(C)cc4)o3)n2-c2ccccc2Cl)cc1` [compound 109, 3-((5-p-tolyl-1,3,4-oxadiazol-2-yl)methylthio)-4-(2-chlorophenyl)-5-(4-ethoxyphenyl)-4H-1,2,4-triazole], the values for the activity at 10 µM (in the experiment on canonical Wnt signaling [2]; in experiment [3]) were 0.6% and 33%, respectively.

For the compound `Cc1ccc(-c2nnc(CCc3nnc(-c4ccncc4)n3-c3ccccc3Cl)o2)cc1` [compound 101], the results for the activity at 10 µM (in the experiment on canonical Wnt signaling [2]; in experiment [3]) were 23% and 47%, respectively.

Regarding `Cc1ccc(-c2nnc(CSc3nnc(-c4ccc(Cl)c(Cl)c4)n3-c3ccccc3Cl)o2)cc1` [compound 131, 3-((5-p-tolyl-1,3,4-oxadiazol-2-yl)methylthio)-4-(2-chlorophenyl)-5-(3,4-dichlorophenyl)-4H-1,2,4-triazole], the activity at 10 µM amounted to 4% with canonical Wnt signaling [2] and 53% in experiment [3].

For `COc1cc(OC)cc(-c2nnc(SCc3nnc(-c4ccc(C)cc4)o3)n2-c2ccccc2Cl)c1` [Compound 107], the activity at 10 µM in the experiment with canonical Wnt signaling [2] is 4.5%; in experiment [3] it was 47%.

In the experiment on canonical Wnt signaling [1], `Cc1ccc(-c2nnc(CSc3nnc(-c4ccncc4)n3-c3ccccc3Cl)o2)c(Br)c1` [compound 72] returned a 50% inhibitory concentration (IC50) of 551 nM. Moreover, the results for the activity at 10 µM (in the experiment on canonical Wnt signaling [2]; in experiment [3]) were 20% and 55%, respectively.

In the experiment with canonical Wnt signaling [1], `Clc1ccc(-c2nnc(CSc3nnc(-c4ccncc4)n3-c3ccccc3Cl)o2)c(Cl)c1` [compound 114, 4-(5-((5-(2,4-dichlorophenyl)-1,3,4-oxadiazol-2-yl)methylthio)-4-(2-chlorophenyl)-4H-1,2,4-triazol-3-yl)pyridine] returned an IC50 of 795 nM. The activity at 10 µM in the experiment with canonical Wnt signaling [2] is 4.2%; in experiment [3], 69%.

In the experiment with canonical Wnt signaling [1], `Cc1ccc(-c2nnc(CSc3nnc(-c4ccncn4)n3-c3ccccc3Cl)o2)cc1` [compound 105, 4-(5-((5-p-tolyl-1,3,4-oxadiazol-2-yl)methylthio)-4-(2-chlorophenyl)-4H-1,2,4-triazol-3-yl)pyrimidine] yielded an IC50 of 29 nM. In addition, the activity at 10 µM is 4.4% in the experiment on canonical Wnt signaling [2] and 54% in experiment [3].

In the case of `Clc1ccc(-c2nnc(CSc3nnc(-c4ccncc4)n3-c3ccccc3Cl)o2)cc1Cl` [compound 130, 4-(5-((5-(3,4-dichlorophenyl)-1,3,4-oxadiazol-2-yl)methylthio)-4-(2-chlorophenyl)-4H-1,2,4-triazol-3-yl)pyridine], the IC50 in the experiment on canonical Wnt signaling [1] amounted to 151 nM. In addition, the activity at 10 µM in the experiment on canonical Wnt signaling [2] amounted to 9%; in experiment [3], 72%.

Regarding `Cc1ccc(-c2nnc(CSc3nnc(-c4ccc(F)cc4)n3-c3ccccc3Cl)o2)cc1` [compound 115, 3-((5-p-tolyl-1,3,4-oxadiazol-2-yl)methylthio)-4-(2-chlorophenyl)-5-(4-fluorophenyl)-4H-1,2,4-triazole], the activity at 10 µM came to 5% in the experiment on canonical Wnt signaling [2] and 60% in experiment [3].

Take `Fc1ccc(-n2c(SCc3nc(-c4cccc(Cl)c4)no3)nnc2-c2ccncc2)cc1` [Compound 21]: in the experiment on canonical Wnt signaling [1], the IC50 was determined as 10000 nM. Also, in the experiment with canonical Wnt signaling [2], the activity at 10 µM came to 90.1%.

With `Cc1ccc(-c2nnc(CSc3nnc(-c4ccc(Cl)cc4)n3-c3ccccc3Cl)o2)cc1` [compound 111, 3-((5-p-tolyl-1,3,4-oxadiazol-2-yl)methylthio)-4-(2-chlorophenyl)-5-(4-chlorophenyl)-4H-1,2,4-triazole], the activity at 10 µM with canonical Wnt signaling [2] worked out at 0.7%; in experiment [3], 44%.

As to `Cc1ccc(-c2nnc(CSc3nnc(-c4cc(O)cc(O)c4)n3-c3ccccc3Cl)o2)cc1` [compound 106, (5-((5-p-tolyl-1,3,4-oxadiazol-2-yl)methylthio)-4-(2-chlorophenyl)-4H-1,2,4-triazol-3-yl)benzene-1,3-diol], the results for the activity at 10 µM (in the experiment on canonical Wnt signaling [2]; in experiment [3]) were 14.5% and 63%, respectively.

The compound `Cc1ccc2nc(CSc3nnc(-c4ccncc4)n3-c3ccccc3C)cc(=O)n2c1` [Compound 85] gave an activity at 10 µM in the experiment with canonical Wnt signaling [2] of 43%.

Turning to `Cc1ccccc1-n1c(SCc2nc(-c3cccc(O)c3)no2)nnc1-c1ccncc1` [Compound 47], inhibition with canonical Wnt signaling [1] was half-maximal at 950 nM (IC50). In addition, the activity at 10 µM in the experiment with canonical Wnt signaling [2] worked out at 8.7%.

For the compound `Cc1ccc(-c2nnc(S[C@H](C)c3nnc(-c4ccncc4)n3-c3ccccc3Cl)o2)cc1` [100b], the figures for the activity at 10 µM (in the experiment with canonical Wnt signaling [2]; in experiment [3]) were 5% and 66%, respectively.

Consider `Cc1ccccc1-n1c(SCC(=O)NCc2cccs2)nnc1-c1ccncc1` [Compound 88], for which the activity at 10 µM in the experiment with canonical Wnt signaling [2] came out at 99%.
